In patent publication US20240368203A1, “DEGRADATION OF (EGFR) BY CONJUGATION OF EGFR INHIBITORS WITH E3 LIGASE LIGAND AND METHODS OF USE” (BeiGene, Ltd., priority 2022, published 2024):

How the values were obtained:
EGFR-Del19/T790M/C797S = experiment: EGFR degradation HTRF assay in H1975-clone #28 cells; type: cell-based; conditions: H1975-clone #28 (Del19/T790M/C797S) cells, 16 h treatment; for DC50: IC50 (DC50), read-out: DC50(nM) H1975 # 28 DTC; for Dmax (%) H1975 # 28 DTC: maximum percentage of inhibition (degradation)
Method in brief: (§1)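 H1975 clones with endogenous EGFR knocked out, homozygously expressing lentiviral L858R/T790M/C797S (#25) or Del19/T790M/C797S (#28), treated 16 h at 37° C with 8 doses from 10 uM, 5-fold, in 0.2% DMSO. EGFR in lysates measured by HTRF overnight; DC50 from four-parameter fit of % degradation.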

EGFR-L858R/T790M/C797S = target: T1, EGFR-L858R/T790M/C797S (Homo sapiens, UniProt P00533, C797S/L858R/T790M); experiment: EGFR degradation HTRF assay in H1975-clone #25 cells; type: cell-based; conditions: 16 h treatment; for DC50: H1975-clone #25 (L858R/T790M/C797S) cells, IC50 (DC50), read-out: DC50(nM) H1975 # 25-LTC; for Dmax: NCI-H1975, H1975-clone #25 (L858R/T790M/C797S) cells, maximum percentage of inhibition (degradation), read-out: Dmax (%) H1975 # 25-LTC
T1 construct: expressed in transfected cells; host or cells: H1975-clone #25 (lentiviral over-expression, endogenous EGFR knocked out)
Method in brief: as §1

T1 sequence (P00533 25-1210 T790M/C797S/L858R): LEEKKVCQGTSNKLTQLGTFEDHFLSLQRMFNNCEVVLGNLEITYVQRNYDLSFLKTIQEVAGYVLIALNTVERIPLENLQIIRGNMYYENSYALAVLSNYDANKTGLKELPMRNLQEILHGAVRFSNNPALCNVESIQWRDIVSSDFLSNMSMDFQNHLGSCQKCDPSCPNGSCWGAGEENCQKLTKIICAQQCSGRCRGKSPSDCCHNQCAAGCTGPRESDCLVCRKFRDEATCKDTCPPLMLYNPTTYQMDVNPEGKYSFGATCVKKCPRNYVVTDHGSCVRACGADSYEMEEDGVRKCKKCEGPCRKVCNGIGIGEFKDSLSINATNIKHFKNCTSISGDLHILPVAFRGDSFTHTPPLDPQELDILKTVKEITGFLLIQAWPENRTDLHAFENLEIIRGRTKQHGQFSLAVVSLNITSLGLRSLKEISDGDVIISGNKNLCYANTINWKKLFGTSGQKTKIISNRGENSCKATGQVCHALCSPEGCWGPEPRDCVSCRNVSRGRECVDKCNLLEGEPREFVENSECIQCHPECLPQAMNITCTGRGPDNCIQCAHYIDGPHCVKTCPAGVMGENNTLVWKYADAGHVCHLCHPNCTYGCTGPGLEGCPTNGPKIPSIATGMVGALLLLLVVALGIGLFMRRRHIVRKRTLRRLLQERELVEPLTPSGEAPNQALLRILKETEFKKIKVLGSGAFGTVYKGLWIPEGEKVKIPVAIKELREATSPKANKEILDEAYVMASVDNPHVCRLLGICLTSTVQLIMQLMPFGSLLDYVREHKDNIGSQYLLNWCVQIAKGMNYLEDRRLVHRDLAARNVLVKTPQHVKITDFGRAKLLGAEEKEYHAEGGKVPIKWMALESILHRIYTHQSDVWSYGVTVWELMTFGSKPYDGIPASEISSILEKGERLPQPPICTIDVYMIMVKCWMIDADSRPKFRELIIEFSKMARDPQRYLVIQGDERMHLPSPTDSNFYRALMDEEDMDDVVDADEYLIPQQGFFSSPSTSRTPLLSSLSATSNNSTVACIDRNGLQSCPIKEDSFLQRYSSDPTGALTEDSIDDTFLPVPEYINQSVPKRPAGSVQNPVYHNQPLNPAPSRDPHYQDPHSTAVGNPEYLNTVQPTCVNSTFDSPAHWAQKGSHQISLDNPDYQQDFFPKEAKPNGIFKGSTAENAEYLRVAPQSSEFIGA

| DC50 (EGFR-Del19/T790M/C797S) [nM] | DC50 (EGFR-L858R/T790M/C797S) [nM] | Dmax (EGFR-L858R/T790M/C797S) [%] | SMILES | Dmax (%) H1975 # 28 DTC (EGFR-Del19/T790M/C797S) [%] |
| --- | --- | --- | --- | --- |
| 1.4 | 0.7 | 80 | CCc1cc(Nc2ncc(Br)c(Nc3ccc4nc(C)c(F)cc4c3P(C)(C)=O)n2)c(OC)cc1N1CCC(N2CC3(CN(c4cccc5c4n(C)c(=O)n5C4CCC(=O)NC4=O)C3)C2)CC1 (stereo not shown) [Example 26, 3-(4-(6-(1-(4-((5-bromo-4-((5-(dimethylphosphoryl)-3-fluoro-2-methylquinolin-6-yl)amino)pyrimidin-2-yl)amino)-2-ethyl-5-methoxyphenyl)piperidin-4-yl)-2,6-diazaspiro[3.3]heptan-2-yl)-3-methyl-2-oxo-2,3-dihydro-1H-benzo[d]imidazol-1-yl)piperidine-2,6-dione] | 75 |
| 6.6 | 3.3 | 95 | CCc1cc(Nc2ncc(Br)c(Nc3ccc4nc(C)c(F)cc4c3P(C)(C)=O)n2)c(OC)cc1N1CCC2(CCN(CC3CCN(c4cc(F)c([C@H]5CCC(=O)NC5=O)c(F)c4)CC3)CC2)CC1 [Example 79, (R)-3-(4-(4-((9-(4-((5-bromo-4-((5-(dimethylphosphoryl)-3-fluoro-2-methylquinolin-6-yl)amino)pyrimidin-2-yl)amino)-2-ethyl-5-methoxyphenyl)-3,9-diazaspiro[5.5]undecan-3-yl)methyl)piperidin-1-yl)-2,6-difluorophenyl)piperidine-2,6-dione] | 90 |
| 2.8 | 1.1 | 85 | CCc1cc(Nc2ncc(Br)c(Nc3ccc4nc(C)c(F)cc4c3P(C)(C)=O)n2)c(OC)cc1N1CCC(N2CC(N3CCN(c4cc(F)c([C@H]5CCC(=O)NC5=O)c(F)c4)CC3)C2)CC1 (single isomer, unassigned) [Example 16] | 88 |
| 4.7 | 2.7 | 77 | CCc1ccc2c(P(C)(C)=O)c(Nc3nc(Nc4cc(CC)c(N5CCC(N6CCC(N7CC(c8cccc9c8n(C)c(=O)n9C8CCC(=O)NC8=O)C7)CC6)CC5)cc4OC)ncc3Br)ccc2n1 (stereo not shown) [Example 63, 3-(4-(1-(1′-(4-((5-bromo-4-((5-(dimethylphosphoryl)-2-ethylquinolin-6-yl)amino)pyrimidin-2-yl)amino)-2-ethyl-5-methoxyphenyl)-[1,4′-bipiperidin]-4-yl)azetidin-3-yl)-3-methyl-2-oxo-2,3-dihydro-1H-benzo[d]imidazol-1-yl)piperidine-2,6-dione] | 74 |
